Structures are written as SMILES. pEC50: −log10 of the molar value.

This experiment relates to Bmi-1 protein. Put plainly: Sandwich ELISA Assay (Bmi-1 protein level in HT-1080 cells after compound treatment). Format: cell-based. The settings on record: Table 1, Bmi-1 sandwich ELISA, read-out: ELISA EC50 value for Bmi-1 protein. A digest of the protocol: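 HT-1080 cells exposed to compounds for 40–48 h at 37 °C (0.5% DMSO final), then lysed. Bmi-1 in lysates measured by sandwich ELISA (mouse monoclonal capture, rabbit anti-Bmi-1 detection, HRP anti-rabbit, TMB), read at OD450 with OD570 reference against a recombinant Bmi-1 standard curve (0–8000 pg/mL).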
Background: ELISA stands for enzyme-linked immunosorbent assay.
As to `FC1CCc2nc(C(F)(F)F)c(-c3cncc(Nc4ccc(C(F)(F)F)cc4)n3)n2C1` (centres unmarked) [compound 406, 6-[6-fluoro-2-(trifluoromethyl)-5,6,7,8-tetrahydroimidazo[1,2-a]pyridin-3-yl]-N-[4-(trifluoromethyl)phenyl]pyrazin-2-amine], the pEC50 was 7.00 to 8.00. In the case of `FC(F)(F)c1ccc(Nc2cncc(-c3cccc4[nH]ccc34)n2)cc1` [compound 407, 6-(1H-indol-4-yl)-N-[4-(trifluoromethyl)phenyl]pyrazin-2-amine], the negative-log EC50 (pEC50) is 5.52 to 7.00. As to `Cc1cc(Nc2cncc(-n3c(C)nc4ccccc43)n2)ccc1C(F)(F)F` [compound 408, 6-(2-methyl-1H-benzimidazol-1-yl)-N-[3-methyl-4-(trifluoromethyl)phenyl]pyrazin-2-amine], the pEC50 was 7.00 to 8.00. As to `COC1CCc2nc(C)c(-c3cncc(Nc4ccc(C(F)(F)F)cc4)n3)n2C1` (centres unmarked) [compound 409, 6-(6-methoxy-2-methyl-5,6,7,8-tetrahydroimidazo[1,2-a]pyridin-3-yl)-N-[4-(trifluoromethyl)phenyl]pyrazin-2-amine], the pEC50 is 8.00 to 9.00. In the case of `Fc1ccc2nc(C(F)(F)F)c(-c3cccc(Nc4ccc(C(F)(F)F)cc4)n3)n2c1` [compound 411, 6-[6-fluoro-2-(trifluoromethyl)imidazo[1,2-a]pyridin-3-yl]-N-[4-(trifluoromethyl)phenyl]pyridin-2-amine], the pEC50 is 7.00 to 8.00. In the case of `Cc1nn(C)c(Cl)c1-c1cncc(Nc2ccc(C(F)(F)F)cc2)n1` [compound 412, 6-(5-chloro-1,3-dimethyl-1H-pyrazol-4-yl)-N-[4-(trifluoromethyl)phenyl]pyrazin-2-amine] it was 8.00 to 9.00; in that of `Cc1nn(C)c(Cl)c1-c1cncc(Nc2ccc(OC(F)F)cc2)n1` [compound 413, 6-(5-chloro-1,3-dimethyl-1H-pyrazol-4-yl)-N-[4-(difluoromethoxy)phenyl]pyrazin-2-amine], 8.00 to 9.00; in that of `Cc1nn(C)c(Cl)c1-c1cncc(Nc2ccc(OC(F)(F)F)cc2)n1` [compound 414, 6-(5-chloro-1,3-dimethyl-1H-pyrazol-4-yl)-N-[4-(trifluoromethoxy)phenyl]pyrazin-2-amine], 7.00 to 8.00. As for `Cc1nn(C)c(Cl)c1-c1cncc(Nc2ccc(OC(F)F)c(F)c2)n1` [compound 415, 6-(5-chloro-1,3-dimethyl-1H-pyrazol-4-yl)-N-[4-(difluoromethoxy)-3-fluorophenyl]pyrazin-2-amine], the negative logarithm of the EC50 (pEC50) was 7.00 to 8.00. As to `Cn1nc2ccc(F)cc2c1-c1cncc(Nc2ccc(C(F)(F)F)cc2)n1` [compound 416, 6-(5-fluoro-2-methyl-2H-indazol-3-yl)-N-[4-(trifluoromethyl)phenyl]pyrazin-2-amine], the negative logarithm of the EC50 (pEC50) was 7.00 to 8.00. The figure for `Cc1nc2c(F)cc(F)cc2n1-c1cncc(Nc2ccc(C(F)(F)F)cc2)n1` [compound 417, 6-(4,6-difluoro-2-methyl-1H-benzimidazol-1-yl)-N-[4-(trifluoromethyl)phenyl]pyrazin-2-amine] is 7.00 to 8.00.

`ONc1cc(Nc2ccc(C(F)(F)F)cc2)nc(-c2c(C(F)(F)F)nc3ccc(F)cn23)c1` [compound 418, 6-[6-fluoro-2-(trifluoromethyl)imidazo[1,2-a]pyridin-3-yl]-N^4-hydroxy-N^2-[4-(trifluoromethyl)phenyl]pyridine-2,4-diamine]: the negative-log EC50 (pEC50) was 7.00 to 8.00. As for `Cc1nc2ncc(Cl)cc2n1-c1cc(C#N)cc(Nc2ccc(C(F)(F)F)cc2)n1` [compound 419, 2-(6-chloro-2-methyl-1H-imidazo[4,5-b]pyridin-1-yl)-6-{[4-(trifluoromethyl)phenyl]amino}pyridine-4-carbonitrile], the pEC50 is 8.00 to 9.00. For the compound `Cc1nc2ccccc2n1-c1cncc(Nc2nc3ccccc3s2)n1` [compound 420, N-[6-(2-methyl-1H-benzimidazol-1-yl)pyrazin-2-yl]-1,3-benzothiazol-2-amine], the pEC50 was 8.00 to 9.00. The figure for `FC(F)(F)c1ccc(Nc2cncc(-c3c(C4CC4)nc4ncccn34)n2)cc1` [compound 422, 6-(2-cyclopropylimidazo[1,2-a]pyrimidin-3-yl)-N-[4-(trifluoromethyl)phenyl]pyrazin-2-amine] is 7.00 to 8.00; for `Cc1nc2cc(F)c(F)cc2n1-c1cncc(Nc2ccc(N3CCOCC3)nc2)n1` [compound 423, 6-(5,6-difluoro-2-methyl-1H-benzimidazol-1-yl)-N-[6-(morpholin-4-yl)pyridin-3-yl]pyrazin-2-amine] it is 7.00 to 8.00; for `Cc1nc2ccccc2n1-c1cncc(NC2Cc3ccccc3C2)n1` [compound 424, N-(2,3-dihydro-1H-inden-2-yl)-6-(2-methyl-1H-benzimidazol-1-yl)pyrazin-2-amine] it is 5.52 to 7.00. For `Cc1nc2cc(F)c(F)cc2n1-c1cncc(Nc2ccc(NCCO)nc2)n1` [compound 425, 2-[(5-{[6-(5,6-difluoro-2-methyl-1H-benzimidazol-1-yl)pyrazin-2-yl]amino}pyridin-2-yl)amino]ethanol], the pEC50 is 7.00 to 8.00. For `Cc1nc2cc(F)ccc2n1-c1cncc(Nc2ccc(Cl)nc2)n1` [compound 426, N-(6-chloropyridin-3-yl)-6-(5-fluoro-2-methyl-1H-benzimidazol-1-yl)pyrazin-2-amine], the negative logarithm of the EC50 (pEC50) was 5.52 to 7.00.

Regarding `Cc1nc2ccc(F)cc2n1-c1cncc(Nc2ccc(Cl)nc2)n1` [compound 427, N-(6-chloropyridin-3-yl)-6-(6-fluoro-2-methyl-1H-benzimidazol-1-yl)pyrazin-2-amine], the pEC50 was 7.00 to 8.00. In the case of `Cc1nc2ncc(Cl)cc2n1-c1cc(C#N)cc(Nc2ccc(OC(F)F)cc2)n1` [compound 428, 2-(6-chloro-2-methyl-1H-imidazo[4,5-b]pyridin-1-yl)-6-{[4-(difluoromethoxy)phenyl]amino}pyridine-4-carbonitrile], the pEC50 was 8.00 to 9.00.

For `Cc1nc2ncc(Cl)cc2n1-c1cc(C#N)cc(Nc2ccc(OC(F)F)c(F)c2)n1` [compound 429, 2-(6-chloro-2-methyl-1H-imidazo[4,5-b]pyridin-1-yl)-6-{[4-(difluoromethoxy)-3-fluorophenyl]amino}pyridine-4-carbonitrile], the pEC50 was 8.00 to 9.00.

For `Cc1nc2cc(F)c(F)cc2n1-c1cncc(Nc2ccc(NCCN(C)C)nc2)n1` [compound 430, N^5-[6-(5,6-difluoro-2-methyl-1H-benzimidazol-1-yl)pyrazin-2-yl]-N^2-[2-(dimethylamino)ethyl]pyridine-2,5-diamine], the negative logarithm of the EC50 (pEC50) was 5.52 to 7.00.

On to `Cc1nc2cc(F)ccc2n1-c1cncc(Nc2ccc(C(F)(F)F)nc2)n1` [compound 431, 6-(5-fluoro-2-methyl-1H-benzimidazol-1-yl)-N-[6-(trifluoromethyl)pyridin-3-yl]pyrazin-2-amine], for which the negative logarithm of the EC50 (pEC50) was 7.00 to 8.00. `Cc1nc2ccc(F)cc2n1-c1cncc(Nc2ccc(C(F)(F)F)nc2)n1` [compound 432, 6-(6-fluoro-2-methyl-1H-benzimidazol-1-yl)-N-[6-(trifluoromethyl)pyridin-3-yl]pyrazin-2-amine]: the pEC50 is 7.00 to 8.00. Regarding `Cc1nc2ccccc2n1-c1cncc(Nc2ccc(B3OC(C)(C)C(C)(C)O3)cc2)n1` [compound 433, 6-(2-methyl-1H-benzimidazol-1-yl)-N-[4-(4,4,5,5-tetramethyl-1,3,2-dioxaborolan-2-yl)phenyl]pyrazin-2-amine], the pEC50 was 5.52 to 7.00. Regarding `Cc1nc2ccccc2n1-c1cncc(Nc2ccc(B(O)O)cc2)n1` [compound 434, (4-{[6-(2-methyl-1H-benzimidazol-1-yl)pyrazin-2-yl]amino}phenyl)boronic acid], the pEC50 is 7.00 to 8.00. Regarding `Cc1nc2ncc(F)cn2c1-c1cc(C#N)cc(Nc2ccc(OC(F)(F)F)cc2)n1` [compound 438, 2-(6-fluoro-2-methylimidazo[1,2-a]pyrimidin-3-yl)-6-{[4-(trifluoromethoxy)phenyl]amino}pyridine-4-carbonitrile], the negative-log EC50 (pEC50) is 7.00 to 8.00. In the case of `Cc1nc2ccccc2n1-c1cncc(Nc2nc3ccc(C(F)(F)F)cc3s2)n1` [compound 440, N-[6-(2-methyl-1H-benzimidazol-1-yl)pyrazin-2-yl]-6-(trifluoromethyl)-1,3-benzothiazol-2-amine], the pEC50 was 5.52 to 7.00. On to `N#Cc1cc(Nc2ccc(C(F)(F)F)nc2)nc(-c2c(CO)nc3ccc(F)cn23)c1` [compound 445, 2-[6-fluoro-2-(hydroxymethyl)imidazo[1,2-a]pyridin-3-yl]-6-{[6-(trifluoromethyl)pyridin-3-yl]amino}pyridine-4-carbonitrile], for which the negative-log EC50 (pEC50) was 7.00 to 8.00. For `N#Cc1cc(Nc2ccc(Cl)nc2)nc(-c2c(CO)nc3ccc(F)cn23)c1` [compound 446, 2-[(6-chloropyridin-3-yl)amino]-6-[6-fluoro-2-(hydroxymethyl)imidazo[1,2-a]pyridin-3-yl]pyridine-4-carbonitrile], the pEC50 was 5.52 to 7.00.

As to `CCc1nc2ncc(Cl)cc2n1-c1cc(C#N)cc(Nc2ccc(C(F)(F)F)cc2)n1` [compound 450, 2-(6-chloro-2-ethyl-1H-imidazo[4,5-b]pyridin-1-yl)-6-{[4-(trifluoromethyl)phenyl]amino}pyridine-4-carbonitrile], the pEC50 is 7.00 to 8.00. Regarding `CCc1nc2ncc(Cl)cc2n1-c1cc(C#N)cc(Nc2ccc(OC(F)F)cc2)n1` [compound 451, 2-(6-chloro-2-ethyl-1H-imidazo[4,5-b]pyridin-1-yl)-6-{[4-(difluoromethoxy)phenyl]amino}pyridine-4-carbonitrile], the pEC50 is 8.00 to 9.00. With `CCc1nc2ncc(Cl)cc2n1-c1cc(C#N)cc(Nc2ccc(OC(F)F)cc2)n1` [compound 452, 2-(6-chloro-2-ethyl-1H-imidazo[4,5-b]pyridin-1-yl)-6-{[4-(difluoromethoxy)phenyl]amino}pyridine-4-carbonitrile], the negative-log EC50 (pEC50) is 7.00 to 8.00. The figure for `Cc1nc2ncc(F)cn2c1-c1cncc(Nc2ccc(C(F)(F)F)cc2)n1` [compound 453, 6-(6-fluoro-2-methylimidazo[1,2-a]pyrimidin-3-yl)-N-[4-(trifluoromethyl)phenyl]pyrazin-2-amine] is 7.00 to 8.00.

The pEC50 is −log10 of the EC50, conventionally taken in molar units.

These data come from patent US10584115B2, “Substituted pyridine and pyrazine BMI-1 inhibitors” (PTC Therapeutics, Inc., priority 2013, dated 2020).
